In ChEMBL document CHEMBL2434903, “Synthesis and biological evaluation of furopyrimidine N,O-nucleosides” (Bioorg Med Chem, 2013) one finds CC50, MCC and inhibition data, which are given here for six compounds.

The term CC50 denotes the concentration giving 50% cytotoxicity.

Activity calls are given as the source filed them. The rule behind the calls is not given here.

A short description of data set [1]: Cytostatic activity against African green monkey Vero cells by MTT assay. It is filed as ADME, cell-based. The note with it: chlorocebus sabaeus. In general terms: Tetrazolium dyes change colour on reduction, which living cells bring about.
Data set [2] in a line: Cytostatic activity against human MRC5 cells by MTT assay. It is filed as ADME, cell-based.
The nature of data set [3]: Cytostatic activity against African green monkey BSC1 cells by MTT assay. It is filed as ADME, cell-based, BSC-1. Particulars: chlorocebus aethiops.
Data set [4] in a line: Cytotoxicity against African green monkey Vero cells assessed as change in cell morphology after 24 to 96 hrs by light microscopic analysis. It is filed as cell-based. Particulars: chlorocebus sabaeus.
Data set [5] can be described thus: Cytotoxicity against human MRC5 cells assessed as change in cell morphology after 24 to 96 hrs by light microscopic analysis. It is filed as cell-based.
The nature of data set [6]: Cytotoxicity against African green monkey BSC1 cells assessed as change in cell morphology after 24 to 96 hrs by light microscopic analysis. It is filed as cell-based, BSC-1. Particulars: chlorocebus aethiops.
A further data set has as its system Human alphaherpesvirus 3. Put plainly: Antiviral activity against Varicella-zoster virus VR-1367 infected in African green monkey BSC1 cells assessed as inhibition of virus plaque formation. It is filed as functional, organism-based. The note with it: BSC-1.
In another data set the test system is Human betaherpesvirus 5. Description: Antiviral activity against Cytomegalovirus VR-538 infected in human MRC5 cells assessed as inhibition of virus-induced cytopathogenicity. It is filed as functional, organism-based. (Protection from cytopathic effect is a common read-out in antiviral testing.)
The test system of a further data set is Human alphaherpesvirus 2. Description: Antiviral activity against Herpes simplex virus type 2 VR-734 infected in African green monkey Vero cells assessed as inhibition of virus-induced cytopathogenicity. It is filed as functional, organism-based.
Another data set deals with Human alphaherpesvirus 1. Put plainly: Antiviral activity against Herpes simplex virus type 1 VR-260 infected in African green monkey Vero cells assessed as inhibition of virus-induced cytopathogenicity. It is filed as functional, organism-based.
Another data set relates to Human adenovirus 2. Put plainly: Antiviral activity against Adenovirus 2 VR-1080 infected in African green monkey Vero cells assessed as inhibition of virus-induced cytopathogenicity. It is filed as functional, organism-based.
The next data set concerns Coxsackievirus B4. Description: Antiviral activity against Coxsackievirus B4 VR-1035 infected in African green monkey Vero cells assessed as inhibition of virus-induced cytopathogenicity. It is filed as functional, organism-based.
A further data set concerns Echovirus E9. Description: Antiviral activity against Human echovirus 9 VR-1050 infected in African green monkey Vero cells assessed as inhibition of virus-induced cytopathogenicity. It is filed as functional, organism-based.
In the next data set the test system is Poliovirus 1. Description: Antiviral activity against Poliovirus 1 Sabin VR-1562 infected in African green monkey Vero cells assessed as inhibition of virus-induced cytopathogenicity. The note with it: Human poliovirus 1 strain Sabin. It is filed as functional, cell-based.

On to `CCCc1cc2cn(C3CC(CO)N(C)O3)c(=O)nc2o1` (stereo not drawn), for which the values for the CC50 in [1], in data set [2] and in [3] were 31.2 µM, 31.2 µM and 7 µM, respectively. The results for the MCC in data set [4], in data set [5] and in data set [6] were > 500 µM, > 250 µM and > 250 µM, respectively. Further, the inhibition result in the data set with Human alphaherpesvirus 3, in the data set with Human betaherpesvirus 5, with Human alphaherpesvirus 2, in the data set with Human alphaherpesvirus 1, in the data set on Human adenovirus 2 and with Coxsackievirus B4 was “inactive” throughout. Also, the inhibition entry with Echovirus E9 and with Poliovirus 1 was “inactive” throughout.

As to `Nc1nc2c(ncn2COCCO)c(=O)[nH]1`, the inhibition result with Human alphaherpesvirus 3, in the data set with Human betaherpesvirus 5, with Human alphaherpesvirus 2, in the data set with Human alphaherpesvirus 1, in the data set with Human adenovirus 2 and with Coxsackievirus B4 was “Active” in each case. Besides, the inhibition entry in the data set on Echovirus E9 and in the data set on Poliovirus 1 was “Active” each time.

In the case of `COc1ccc(-c2cc3cn(C4CC(CO)N(C)O4)c(=O)nc3o2)cc1` (racemic), the CC50 came out at 62.5 µM in data set [1], 31.2 µM in data set [2] and 7 µM in [3]. The MCC in data set [4] was determined as 62.5 µM; in [5], 62 µM; in [6], 62 µM. The inhibition result with Human alphaherpesvirus 3, in the data set with Human betaherpesvirus 5, in the data set with Human alphaherpesvirus 2, in the data set on Human alphaherpesvirus 1, with Human adenovirus 2 and in the data set on Coxsackievirus B4 was “inactive” throughout. Besides, the inhibition entry with Echovirus E9 and in the data set on Poliovirus 1 was “inactive” in each case.

As for `CCCCCc1ccc(-c2cc3cn(C4CC(CO)N(C)O4)c(=O)nc3o2)cc1` (racemic), the CC50 came out at 3 µM in data set [1], 1.5 µM in data set [2] and 0.7 µM in data set [3]. The MCC in data set [4], in data set [5] and in [6] was 6 µM in each case. The inhibition result in the data set on Human alphaherpesvirus 3, in the data set on Human betaherpesvirus 5, with Human alphaherpesvirus 2, with Human alphaherpesvirus 1, in the data set with Human adenovirus 2 and in the data set with Coxsackievirus B4 was “inactive” each time. Besides, the inhibition entry in the data set on Echovirus E9 and in the data set with Poliovirus 1 was “inactive” throughout.

`CN1OC(n2cc3cc(-c4ccccc4)oc3nc2=O)CC1CO` (racemic): the CC50 stood at 125 µM in data set [1], 125 µM in [2] and 32 µM in [3]. The figures for the MCC in data set [4], in data set [5] and in data set [6] were 125 µM, > 250 µM and > 250 µM, respectively. The inhibition entry in the data set on Human alphaherpesvirus 3, with Human betaherpesvirus 5, with Human alphaherpesvirus 2, in the data set on Human alphaherpesvirus 1, in the data set on Human adenovirus 2 and in the data set with Coxsackievirus B4 was “inactive” throughout. Also, the inhibition entry with Echovirus E9 and with Poliovirus 1 was “inactive” throughout.

On to `CN1OC(n2cc3ccoc3nc2=O)CC1CO` (racemic), for which the figures for the CC50 in [1], in [2] and in data set [3] were 125 µM, > 250 µM and 62 µM, respectively. Moreover, the MCC in [4] was > 500 µM; in data set [5], > 250 µM; in data set [6] it was > 250 µM. Moreover, the inhibition entry in the data set with Human alphaherpesvirus 3, in the data set with Human betaherpesvirus 5, with Human alphaherpesvirus 2, in the data set on Human alphaherpesvirus 1, in the data set on Human adenovirus 2 and with Coxsackievirus B4 was “inactive” throughout. The inhibition result with Echovirus E9 and with Poliovirus 1 was “inactive” in each case.
